Data from PubChem BioAssay AID2060627 (Molecular Pharmacology Branch, DTP, NCI, 2025).
One block for each compound: values may come before it.

System: 156681-154-R-J1-PDC complex spheroid viability
Assay: Anticancer human tumor 156681-154-R-J1-PDC patient-derived melanoma cell line growth inhibition [CLK]
Conditions: for IC50: curve of first compound; for viability, T/C: stronger effect = lower value
Procedure, shortened: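 Multi-cell-type spheroids combined patient-derived tumor cells with HUVEC endothelial cells and human mesenchymal stem cells. Paired agents were dosed in half-log steps down from about clinical Cmax, or from 10 microM where Cmax was unknown.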

[1] = second compound 0.0316 µM, first compound 0.0316 µM
[2] = second compound 0.0316 µM, first compound 0.1 µM
[3] = second compound 0.0316 µM, first compound 0.316 µM
[4] = second compound 0.0316 µM, first compound 1 µM
[5] = second compound 0.0316 µM, first compound 3.16 µM
[6] = second compound 0.0316 µM, first compound 10 µM
[7] = second compound 0.1 µM, first compound 0.0316 µM
[8] = second compound 0.1 µM, first compound 0.1 µM
[9] = second compound 0.1 µM, first compound 0.316 µM
[10] = second compound 0.1 µM, first compound 1 µM
[11] = second compound 0.1 µM, first compound 3.16 µM
[12] = second compound 0.1 µM, first compound 10 µM
[13] = second compound 0.316 µM, first compound 0.0316 µM
[14] = second compound 0.316 µM, first compound 0.1 µM
[15] = second compound 0.316 µM, first compound 0.316 µM
[16] = second compound 0.316 µM, first compound 1 µM
[17] = second compound 0.316 µM, first compound 3.16 µM
[18] = second compound 0.316 µM, first compound 10 µM
[19] = second compound 1 µM, first compound 0.0316 µM
[20] = second compound 1 µM, first compound 0.1 µM
[21] = second compound 1 µM, first compound 0.316 µM
[22] = second compound 1 µM, first compound 1 µM
[23] = second compound 1 µM, first compound 3.16 µM
[24] = second compound 1 µM, first compound 10 µM
[25] = second compound 3.16 µM, first compound 0.0316 µM
[26] = second compound 3.16 µM, first compound 0.1 µM
[27] = second compound 3.16 µM, first compound 0.316 µM
[28] = second compound 3.16 µM, first compound 1 µM
[29] = second compound 3.16 µM, first compound 3.16 µM
[30] = second compound 3.16 µM, first compound 10 µM
[31] = second compound 10 µM, first compound 0.0316 µM
[32] = second compound 10 µM, first compound 0.1 µM
[33] = second compound 10 µM, first compound 0.316 µM
[34] = second compound 10 µM, first compound 1 µM
[35] = second compound 10 µM, first compound 3.16 µM
[36] = second compound 10 µM, first compound 10 µM
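Note: spheroids exposed to the agents for seven days.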
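Throughout, for viability, T/C: 100% = DMSO vehicle control viability.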

IC50 (second compound 0.0316 µM): 4.96 µM
IC50 (second compound 0.1 µM): 3.87 µM
IC50 (second compound 0.316 µM): 2.09 µM
IC50 (second compound 1 µM): < 0.0316 µM
IC50 (second compound 3.16 µM): < 0.0316 µM
IC50 (second compound 10 µM): < 0.0316 µM
SMILES: CCCS(=O)(=O)Nc1ccc(F)c(C(=O)c2c[nH]c3ncc(-c4ccc(Cl)cc4)cc23)c1F + CNC(=O)c1ccc(Nc2nc(OC3CCCC3)c3c(-c4ccc5nc(C)oc5c4)c[nH]c3n2)c(OC)c1
viability, T/C [1]: 69%
viability, T/C [2]: 81.1%
viability, T/C [3]: 70.7%
viability, T/C [4]: 113%
viability, T/C [5]: 76.8%
viability, T/C [6]: 8.32%
viability, T/C [7]: 54.8%
viability, T/C [8]: 57.4%
viability, T/C [9]: 72.1%
viability, T/C [10]: 63%
viability, T/C [11]: 58.2%
viability, T/C [12]: 10.1%
viability, T/C [13]: 48%
viability, T/C [14]: 58.8%
viability, T/C [15]: 62.3%
viability, T/C [16]: 58.7%
viability, T/C [17]: 46.1%
viability, T/C [18]: 14.4%
viability, T/C [19]: 45.8%
viability, T/C [20]: 48.7%
viability, T/C [21]: 42.8%
viability, T/C [22]: 40.3%
viability, T/C [23]: 39.1%
viability, T/C [24]: 12.5%
viability, T/C [25]: 41.1%
viability, T/C [26]: 29.7%
viability, T/C [27]: 33.5%
viability, T/C [28]: 34%
viability, T/C [29]: 36.2%
viability, T/C [30]: 13.8%
viability, T/C [31]: 34.9%
viability, T/C [32]: 34.3%
viability, T/C [33]: 22.1%
viability, T/C [34]: 32.5%
viability, T/C [35]: 23.4%
viability, T/C [36]: 12.2%

IC50 (second compound 0.0316 µM): 1.07 µM
IC50 (second compound 0.1 µM): 0.327 µM
IC50 (second compound 0.316 µM): 0.0885 µM
IC50 (second compound 1 µM): < 0.0316 µM
IC50 (second compound 3.16 µM): < 0.0316 µM
IC50 (second compound 10 µM): < 0.0316 µM
SMILES: COC1C=CCC(C)C(C)S(=O)(=O)NC(=O)c2ccc3c(c2)N(CC2CCC21)CC1(CCCc2cc(Cl)ccc21)CO3 (centres undefined) + CNC(=O)c1ccc(Nc2nc(OC3CCCC3)c3c(-c4ccc5nc(C)oc5c4)c[nH]c3n2)c(OC)c1
viability, T/C [1]: 96.3%
viability, T/C [2]: 93.1%
viability, T/C [3]: 84.3%
viability, T/C [4]: 54%
viability, T/C [5]: 9.3%
viability, T/C [6]: 1.52%
viability, T/C [7]: 60.2%
viability, T/C [8]: 57%
viability, T/C [9]: 48.8%
viability, T/C [10]: 36.5%
viability, T/C [11]: 12.5%
viability, T/C [12]: 1.5%
viability, T/C [13]: 55.6%
viability, T/C [14]: 49.5%
viability, T/C [15]: 35.6%
viability, T/C [16]: 20.6%
viability, T/C [17]: 5.31%
viability, T/C [18]: 2.16%
viability, T/C [19]: 43.4%
viability, T/C [20]: 42.6%
viability, T/C [21]: 24.4%
viability, T/C [22]: 19.5%
viability, T/C [23]: 8.99%
viability, T/C [24]: 2.33%
viability, T/C [25]: 35.7%
viability, T/C [26]: 39%
viability, T/C [27]: 15.3%
viability, T/C [28]: 15.1%
viability, T/C [29]: 7.52%
viability, T/C [30]: 3.33%
viability, T/C [31]: 30.4%
viability, T/C [32]: 32.5%
viability, T/C [33]: 16.2%
viability, T/C [34]: 13.8%
viability, T/C [35]: 10.4%
viability, T/C [36]: 5.15%
